Assay results as given in article PMC11405051, “HLA A*24:02–restricted T cell receptors cross-recognize bacterial and preproinsulin peptides in type 1 diabetes” (The Journal of Clinical Investigation, 2024).

Columns and labels:
[1] = test system: 4C6 T cell clone; test: Peptide titration activation assay of 4C6 T cell clone, MIP-1β ELISA; type: cell-based, human; details: duplicate conditions
Experimental: 4C6 T-cells were rested overnight in R5 media (as for R10 but with 5% FBS) to reduce
spontaneous activation, followed by incubation in the presence of C1R-HLA A*24:02, with peptide mixtures
of defined length and random amino acid sequence (X8-14 in which X is any of the 20 proteogenic L-amino
acids, excluding cysteine) in R5 media overnight at 37°C and 5% CO2. MIP-1β production was measured by
enzyme-linked immunosorbent assay (ELISA, R&D Systems, Bio-Techne, Minneapolis, MN, US) as a proxy
for T cell activation as previously described (22). Peptide mixtures were synthesised at >40% purity
(Pepscan Presto, Lelystad, Netherlands) and stored at -80°C in DMSO at 40 mM. Mixtures were used in
assays at a concentration of 1 mM. Following conformation of the preference of 4C6 T-cells for 9-mer
peptides, nonamer PS-CPL screening was performed using libraries synthesised at >40% purity as
described previously (22, 23, 43). Libraries were stored at -80°C in DMSO at 20 mM. For assays, 6×104
C1R-HLA A*24:02 were pulsed with 100 μM of each CPL library mixture for 2 h at 37°C. Following this,
3×10^4 4C6 T cells were co-incubated with the pulsed C1R-HLA A*24:02 cells overnight at 37°C and 5% CO2.
Assay conditions were performed in duplicate. Supernatants were harvested the following morning and
assayed for the presence of MIP-1β, as above, by ELISA.
universe with bias toward good agonists.

[2] = test system: tetramer-enriched T cell lines from HLA A*24+ healthy donors; test: Tetramer staining of tetramer-enriched T cell lines from HLA A*24+ healthy donors; type: cell-based, human
Experimental: The 4C6 T-cell clone was rested overnight in R5 media, as above then incubated with antigen presenting
cells, with 3 x104 4C6 T-cells and 6 x10^4 antigen presenting cells per well of a 96U well plate. The cells were
incubated overnight in R5 media at 37°C and 5% CO2, with all conditions performed in triplicate.
Supernatants were harvested and MIP-1β or TNF production measured by enzyme-linked immunosorbent
assay (ELISA, R&D Systems, Bio-Techne, Minneapolis, MN, US). Experiment 1 used C1R cells +/- HLA
A*24:02 +/- IGF2BP2 (irrelevant control), gsiA or fes genes. Experiment 2 used THP-1 and A549 cells: WT
and + HLA A*A24:02 +/- gsiA or fes genes. PHA (10 μg/mL) as a positive control and exogenous Klebsiella
peptides at 10 μM for comparison were also included. MIP-1β or TNF values for 4C6 T-cells or antigen
presenting cells incubated alone were subtracted during analysis.

[3] = Supplementary Figure 5, 60 biased-sampling peptides and index, 4C6 overnight with C1R-HLA A24:02, MIP-1β ELISA

Sequence	EC50 [1, 3]	other results
QMLPLLPLF [9-mer drawn by CPL-biased importance sampling]	> 10 µM	
DHPPLFPMA [9-mer drawn by CPL-biased importance sampling]	> 10 µM	
NHPRLVGVI [9-mer drawn by CPL-biased importance sampling]	> 10 µM	
EWQPLFSIA [9-mer drawn by CPL-biased importance sampling]	> 10 µM	
QYLRLFNIT [9-mer drawn by CPL-biased importance sampling]	> 10 µM	
ENMPLMPMI [9-mer drawn by CPL-biased importance sampling]	> 10 µM	
DKPRLVPVI [9-mer drawn by CPL-biased importance sampling]	> 10 µM	
ELPPLMSVW [9-mer drawn by CPL-biased importance sampling]	> 10 µM	
QKQPLLPII [9-mer drawn by CPL-biased importance sampling]	> 10 µM	
SNMRLMPVV [9-mer drawn by CPL-biased importance sampling]	> 10 µM	
QKLPLLGLL [9-mer drawn by CPL-biased importance sampling]	> 10 µM	
RLLPLVSVI [9-mer drawn by CPL-biased importance sampling]	> 10 µM	
LMMPLAPMM [9-mer drawn by CPL-biased importance sampling]	> 10 µM	
QHPPLASLI [9-mer drawn by CPL-biased importance sampling]	> 10 µM	
NKLRLVNIM [9-mer drawn by CPL-biased importance sampling]	> 10 µM	
SLLPLLGIL [9-mer drawn by CPL-biased importance sampling]	> 10 µM	
HYQPLVPVL [9-mer drawn by CPL-biased importance sampling]	> 10 µM	
ILMPLMPMT [9-mer drawn by CPL-biased importance sampling]	> 10 µM	
LYQPLVGMV [9-mer drawn by CPL-biased importance sampling]	> 10 µM	
EYPPLVPIL [fungal peptide, Aspergillus niger, Unnamed protein product]		EC50 ([1]; Supplementary Figure 6, top 20 fungal database peptides, 4C6 overnight with C1R HLA A*24:02, MIP-1β ELISA): > 10 µM
DMMPLLPII [9-mer drawn by CPL-biased importance sampling]	> 10 µM	
HYMPLFGVT [9-mer drawn by CPL-biased importance sampling]	> 10 µM	
KWLRLMPMM [9-mer drawn by CPL-biased importance sampling]	> 10 µM	
EMQPLFGMV [9-mer drawn by CPL-biased importance sampling]	> 10 µM	
SYPPLVGMV [9-mer drawn by CPL-biased importance sampling]	> 10 µM	

Sequence	EC50 [1, 3]	other results
DNPRLFGLT [9-mer drawn by CPL-biased importance sampling]	> 10 µM	
ALMRLFSLF [9-mer drawn by CPL-biased importance sampling]	> 10 µM	
LLMPLVGLW [9-mer drawn by CPL-biased importance sampling]	> 10 µM	
RYPPLVPML [9-mer drawn by CPL-biased importance sampling]	> 10 µM	
SWLRLFNMM [9-mer drawn by CPL-biased importance sampling]	> 10 µM	
RHMRLFGML [9-mer drawn by CPL-biased importance sampling]	> 10 µM	
EYPPLLNIL [9-mer drawn by CPL-biased importance sampling]	> 10 µM	
DYQRLVNLL [9-mer drawn by CPL-biased importance sampling]	> 10 µM	
EYMPLVGML [9-mer drawn by CPL-biased importance sampling]	> 10 µM	
IWPPLVPVT [9-mer drawn by CPL-biased importance sampling]	> 10 µM	
NLMRLMNLA [9-mer drawn by CPL-biased importance sampling]	> 10 µM	
KNLPLVPII [9-mer drawn by CPL-biased importance sampling]	> 10 µM	
SMMRLLPVW [9-mer drawn by CPL-biased importance sampling]	> 10 µM	
AYAAAAAAL [irrelevant HLA A*24:02 peptide used in control tetramers]		% tetramer+ ([2]; CMV […] tetramer-enriched line, donor 572D, single-staining): 0%; % tetramer+ ([2]; CMV […] tetramer-enriched line, donor BB25, single-staining): 0.05%; % tetramer+ ([2]; CMV […] tetramer-enriched line, donor BB31, single-staining): 0.05%; % tetramer+ ([2]; CMV […] tetramer-enriched line, donor BB51, single-staining): 0.1%; % tetramer+ ([2]; CMV […] tetramer-enriched line, donor BB52, single-staining): 0.04%; % tetramer+ ([2]; CMV […] tetramer-enriched line, donor BB57, single-staining): 0.02%; % tetramer+ ([2]; CMV […] tetramer-enriched line, donor BB64, single-staining): 0.3%; % tetramer+ ([2]; Kleb SLPRLFPLL tetramer-enriched line, donor 572D, single-staining): 0%; % tetramer+ ([2]; Kleb SLPRLFPLL tetramer-enriched line, donor BB25, single-staining): 0.03%; % tetramer+ ([2]; Kleb SLPRLFPLL tetramer-enriched line, donor BB31, single-staining): 0.5%; % tetramer+ ([2]; Kleb SLPRLFPLL tetramer-enriched line, donor BB51, single-staining): 0.1%; % tetramer+ ([2]; Kleb SLPRLFPLL tetramer-enriched line, donor BB52, single-staining): 0%; % tetramer+ ([2]; Kleb SLPRLFPLL tetramer-enriched line, donor BB57, single-staining): 0.06%; % tetramer+ ([2]; Kleb SLPRLFPLL tetramer-enriched line, donor BB64, single-staining): 0.4%
SNPPLMGLM [9-mer drawn by CPL-biased importance sampling]	> 10 µM	
AHPPLFNVM [9-mer drawn by CPL-biased importance sampling]	> 10 µM	
NWQPLVSIW [9-mer drawn by CPL-biased importance sampling]	> 10 µM	
QWPRLVNVF [9-mer drawn by CPL-biased importance sampling]	> 10 µM	
QKQRLASIL [9-mer drawn by CPL-biased importance sampling]	> 10 µM	
QMQRLVNIV [9-mer drawn by CPL-biased importance sampling]	> 10 µM	
IWQPLAGVA [9-mer drawn by CPL-biased importance sampling]	> 10 µM	
QMPPLVNIM [9-mer drawn by CPL-biased importance sampling]	> 10 µM	
DLQRLVSVI [9-mer drawn by CPL-biased importance sampling]	> 10 µM	
RLMPLVPVV [9-mer drawn by CPL-biased importance sampling]	> 10 µM	
RNPPLVGIW [9-mer drawn by CPL-biased importance sampling]	> 10 µM	
